Source: PubChem BioAssay (NCI)
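Tested at 5 concentrations; 48 h exposure; 96-well plates; endpoints linearly interpolated, else capped at highest concentration. TGI: concentration producing complete growth inhibition.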

How the values were obtained:
Assay in all cases: NCI anticancer screen, dose series, 48 h
M14 melanoma = system: M14 melanoma
HOP-62 NSCLC = system: HOP-62 NSCLC
UO-31 renal = system: UO-31 renal
UACC-257 melanoma = system: UACC-257 melanoma
NCI-H522 lung = system: NCI-H522 lung
HCT-116 colon = system: HCT-116 colon
HCT-15 colon = system: HCT-15 colon
A549 NSCLC = system: A549 NSCLC
SF-295 CNS = system: SF-295 CNS
T-47D breast = system: T-47D breast
MDA-MB-435 = system: MDA-MB-435
OVCAR-5 ovarian = system: OVCAR-5 ovarian
MCF7 breast = system: MCF7 breast
EKVX NSCLC = system: EKVX NSCLC
MDA-MB-231 breast = system: MDA-MB-231 breast
SK-MEL-5 melanoma = system: SK-MEL-5 melanoma
MDA-N = system: MDA-N
BT-549 breast = system: BT-549 breast
HS 578T breast = system: HS 578T breast
TK-10 renal = system: TK-10 renal
NCI-H23 lung = system: NCI-H23 lung
CCRF-CEM leukemia = system: CCRF-CEM leukemia
RXF 393 renal = system: RXF 393 renal
CAKI-1 renal = system: CAKI-1 renal
NCI-H226 lung = system: NCI-H226 lung
UACC-62 melanoma = system: UACC-62 melanoma
786-0 renal = system: 786-0 renal
OVCAR-8 ovarian = system: OVCAR-8 ovarian
DU-145 prostate = system: DU-145 prostate
PC-3 prostate = system: PC-3 prostate
SW-620 colon = system: SW-620 colon
HOP-92 NSCLC = system: HOP-92 NSCLC
COLO 205 colon = system: COLO 205 colon
HT29 colon = system: HT29 colon
HL-60(TB) leukemia = system: HL-60(TB) leukemia
U251 CNS = system: U251 CNS
OVCAR-4 ovarian = system: OVCAR-4 ovarian
SF-539 CNS = system: SF-539 CNS
SK-MEL-2 melanoma = system: SK-MEL-2 melanoma
SR leukemia = system: SR leukemia
SK-MEL-28 melanoma = system: SK-MEL-28 melanoma
OVCAR-3 ovarian = system: OVCAR-3 ovarian
SNB-19 CNS = system: SNB-19 CNS
ACHN renal = system: ACHN renal
NCI/ADR-RES ovarian = system: NCI/ADR-RES ovarian
MALME-3M melanoma = system: MALME-3M melanoma
SK-OV-3 ovarian = system: SK-OV-3 ovarian
SNB-75 CNS = system: SNB-75 CNS
RPMI-8226 leukemia = system: RPMI-8226 leukemia
SF-268 CNS = system: SF-268 CNS
K-562 leukemia = system: K-562 leukemia
LOX IMVI melanoma = system: LOX IMVI melanoma
SN12C renal = system: SN12C renal
MOLT-4 leukemia = system: MOLT-4 leukemia
A498 renal = system: A498 renal
KM12 colon = system: KM12 colon
IGROV1 ovarian = system: IGROV1 ovarian
NCI-H460 lung = system: NCI-H460 lung

NCCNS(=O)(=O)c1ccc(N)cc1
TGI (M14 melanoma): > 100 µM
TGI (HOP-62 NSCLC): > 100 µM
TGI (UO-31 renal): > 100 µM
TGI (UACC-257 melanoma): > 100 µM
TGI (NCI-H522 lung): > 100 µM
TGI (HCT-116 colon): > 100 µM
TGI (HCT-15 colon): > 100 µM
TGI (A549 NSCLC): > 100 µM
TGI (SF-295 CNS): > 100 µM
TGI (T-47D breast): > 100 µM
TGI (MDA-MB-435): > 100 µM
TGI (OVCAR-5 ovarian): > 100 µM
TGI (MCF7 breast): > 100 µM
TGI (EKVX NSCLC): > 100 µM
TGI (MDA-MB-231 breast): > 100 µM
TGI (SK-MEL-5 melanoma): > 100 µM
TGI (MDA-N): > 100 µM
TGI (BT-549 breast): > 100 µM
TGI (HS 578T breast): > 100 µM
TGI (TK-10 renal): > 100 µM
TGI (NCI-H23 lung): > 100 µM
TGI (CCRF-CEM leukemia): > 100 µM
TGI (RXF 393 renal): > 100 µM
TGI (CAKI-1 renal): > 100 µM
TGI (NCI-H226 lung): > 100 µM
TGI (UACC-62 melanoma): > 100 µM
TGI (786-0 renal): > 100 µM
TGI (OVCAR-8 ovarian): > 100 µM
TGI (DU-145 prostate): > 100 µM
TGI (PC-3 prostate): > 100 µM
TGI (SW-620 colon): > 100 µM
TGI (HOP-92 NSCLC): > 100 µM
TGI (COLO 205 colon): > 100 µM
TGI (HT29 colon): > 100 µM
TGI (HL-60(TB) leukemia): 41.5 µM
TGI (U251 CNS): > 100 µM
TGI (OVCAR-4 ovarian): > 100 µM
TGI (SF-539 CNS): > 100 µM
TGI (SK-MEL-2 melanoma): > 100 µM
TGI (SR leukemia): > 100 µM
TGI (SK-MEL-28 melanoma): > 100 µM
TGI (OVCAR-3 ovarian): > 100 µM
TGI (SNB-19 CNS): > 100 µM
TGI (ACHN renal): > 100 µM
TGI (NCI/ADR-RES ovarian): > 100 µM
TGI (MALME-3M melanoma): > 100 µM
TGI (SK-OV-3 ovarian): > 100 µM
TGI (SNB-75 CNS): > 100 µM
TGI (RPMI-8226 leukemia): > 100 µM
TGI (SF-268 CNS): > 100 µM
TGI (K-562 leukemia): > 100 µM
TGI (LOX IMVI melanoma): > 100 µM
TGI (SN12C renal): > 100 µM
TGI (MOLT-4 leukemia): > 100 µM
TGI (A498 renal): > 100 µM
TGI (KM12 colon): > 100 µM
TGI (IGROV1 ovarian): > 100 µM

COc1cc2c3c(c1O)-c1c(ccc(OC)c1OC)CC3N(C)CC2 (stereo unspecified)
TGI (M14 melanoma): > 100 µM
TGI (UO-31 renal): > 100 µM
TGI (UACC-257 melanoma): > 100 µM
TGI (NCI-H522 lung): > 100 µM
TGI (HCT-116 colon): > 100 µM
TGI (HCT-15 colon): > 100 µM
TGI (A549 NSCLC): > 100 µM
TGI (SF-295 CNS): > 100 µM
TGI (T-47D breast): > 100 µM
TGI (MDA-MB-435): > 100 µM
TGI (OVCAR-5 ovarian): > 100 µM
TGI (MCF7 breast): > 100 µM
TGI (EKVX NSCLC): > 100 µM
TGI (MDA-MB-231 breast): > 100 µM
TGI (SK-MEL-5 melanoma): > 100 µM
TGI (MDA-N): > 100 µM
TGI (BT-549 breast): > 100 µM
TGI (HS 578T breast): > 100 µM
TGI (TK-10 renal): > 100 µM
TGI (NCI-H23 lung): > 100 µM
TGI (CCRF-CEM leukemia): > 100 µM
TGI (RXF 393 renal): > 100 µM
TGI (CAKI-1 renal): > 100 µM
TGI (NCI-H226 lung): > 100 µM
TGI (UACC-62 melanoma): > 100 µM
TGI (786-0 renal): > 100 µM
TGI (OVCAR-8 ovarian): > 100 µM
TGI (DU-145 prostate): > 100 µM
TGI (PC-3 prostate): > 100 µM
TGI (SW-620 colon): > 100 µM
TGI (HOP-92 NSCLC): > 100 µM
TGI (COLO 205 colon): > 100 µM
TGI (HT29 colon): > 100 µM
TGI (HL-60(TB) leukemia): > 100 µM
TGI (U251 CNS): > 100 µM
TGI (OVCAR-4 ovarian): > 100 µM
TGI (SF-539 CNS): > 100 µM
TGI (SK-MEL-2 melanoma): > 100 µM
TGI (SR leukemia): > 100 µM
TGI (OVCAR-3 ovarian): > 100 µM
TGI (SNB-19 CNS): > 100 µM
TGI (ACHN renal): > 100 µM
TGI (NCI/ADR-RES ovarian): > 100 µM
TGI (SK-OV-3 ovarian): > 100 µM
TGI (NCI-H460 lung): > 100 µM
TGI (SNB-75 CNS): > 100 µM
TGI (RPMI-8226 leukemia): > 100 µM
TGI (SF-268 CNS): > 100 µM
TGI (LOX IMVI melanoma): > 100 µM
TGI (SN12C renal): > 100 µM
TGI (MOLT-4 leukemia): > 100 µM
TGI (A498 renal): > 100 µM
TGI (KM12 colon): > 100 µM
TGI (IGROV1 ovarian): > 100 µM
